67 compounds from ChEMBL document CHEMBL3301448, “MMV Malaria Box screening against Toxoplasma gondii and Entamoeba histolytica” can be followed below.

The test system of one assay is Entamoeba histolytica. Briefly: MMV: Primary screening was performed with each compound at a 30 uM final concentration and in triplicate in sealed 96-well polystyrene microtiter plates. Parasite inocula (100 ul) comprising 20000 parasites/ml were added to each well and grown at 37 degrees C in a humidified atmosphere of 5% CO2 for 72 h. Positive controls consisted of metronidazole at 1 mg/ml. The growth of E. histolytica trophozoites in each well was determined microscopically by measuring the diameters of the confluent cells in drug-containing wells relative to those in the nega- tive-control wells. The format is functional, organism-based.

The subject of another assay is Toxoplasma gondii. Briefly: MMV: A total of 100ul of inoculum was added to each well (parasite/cell ratio, ~10:1; final volume, 200 ul). Six hours after inoculation, nonadherent parasites were removed, and 100 ul of complete DMEM (1% penicillin-streptomycin, 3% FBS) supplemented with inhibitors at different concentrations (2-fold serial dilutions starting from 30 uM) was added to all except the negative-control wells. Positive controls, consisting of pyrimethamine (PYR) and sulfadiazine (SDZ) (20-mg/ml stocks in DMSO), were tested at a 2mg/ml final concentration. Each test was performed in triplicate. The format is functional, organism-based. Conditions: 6 h.

The structures appear in SMILES notation.

One may read the IC50 as the midpoint of a concentration-inhibition curve. Regarding `Cc1cc(N2CCN(C3CCCC3)CC2)n2c(nc3ccccc32)c1C#N`, the IC50 in the assay on Entamoeba histolytica and in the assay with Toxoplasma gondii was greater than 30 µM throughout.
Regarding `COc1ccc(C2Sc3ccccc3N=C3C2=C(O)c2ccccc23)cc1` (centres undefined), the IC50 with Entamoeba histolytica and in the assay with Toxoplasma gondii was greater than 30 µM each time.
As for `CC(C)(C)CC(C)(C)NCC(O)COc1ccc2c(c1)CCC2` (centres undefined), the IC50 with Entamoeba histolytica and in the assay on Toxoplasma gondii was greater than 30 µM throughout.
Take `CC(=O)c1ccc(NC(=O)CSc2nc(-c3ccccc3Cl)ns2)cc1`: the IC50 with Entamoeba histolytica is greater than 30 µM; in the assay with Toxoplasma gondii, 14.9 µM.
The like results for `CCCCCn1c(=N)n(CC(O)COc2cccc(C)c2)c2ccccc21` (centres undefined) were, in that order, greater than 30 µM and 17.9 µM.
On to `O=C1c2ccccc2C2=Nc3ccccc3SC(c3cccc(F)c3)C12` (centres undefined), for which the IC50 with Entamoeba histolytica is greater than 30 µM; in the assay with Toxoplasma gondii, 18.7 µM.
As to `COc1cc(C(=O)Nc2ccc(-c3nc4ccccc4[nH]3)cc2)cc(OC)c1OC`, the IC50 with Entamoeba histolytica and with Toxoplasma gondii was greater than 30 µM each time.
As to `CCOc1cc(CNC(C)C(O)c2ccccc2)cc(Cl)c1OCC` (centres undefined), the IC50 in the assay with Entamoeba histolytica and in the assay with Toxoplasma gondii was greater than 30 µM throughout.
As for `O=C(Nc1ccccc1O)c1ccc(-c2ccc(Cl)cc2Cl)o1`, the IC50 with Entamoeba histolytica and in the assay on Toxoplasma gondii was greater than 30 µM in each case.
Turning to `COc1cccc(C(=O)Nc2ccc(-c3nc4ccccc4[nH]3)cc2)c1`, the IC50 in the assay on Entamoeba histolytica and in the assay with Toxoplasma gondii was greater than 30 µM throughout.
With `OC(CNCc1ccccc1)Cn1c2ccccc2c2ccccc21` (centres undefined), the IC50 with Entamoeba histolytica and with Toxoplasma gondii was greater than 30 µM in each case.
As to `N=c1n(CCN2CCCCC2)c2ccccc2n1CC(=O)c1ccc(Cl)c(Cl)c1`, the IC50 in the assay on Entamoeba histolytica and in the assay with Toxoplasma gondii was greater than 30 µM each time.
Consider `COc1ccc(Br)cc1C1Nc2ccc3ccccc3c2C2=C1C(=O)CC(c1ccccc1)C2` (centres undefined), for which the IC50 in the assay on Entamoeba histolytica and in the assay on Toxoplasma gondii was greater than 30 µM in each case.
Turning to `CCN1CCN(c2cc(C)c3cc(NC(=O)c4ccc(OC)c(OC)c4)ccc3n2)CC1`, the 50% inhibitory concentration (IC50) in the assay with Entamoeba histolytica and with Toxoplasma gondii was greater than 30 µM each time.
Regarding `CCn1c(SCC(=O)Nc2cc(C(F)(F)F)ccc2Cl)nc2ccccc2c1=O`, the half-maximal inhibitory concentration (IC50) with Entamoeba histolytica and in the assay with Toxoplasma gondii was greater than 30 µM throughout.
Consider `CC1CCCCN1CCCNC(=O)c1ccc2c(c1)sc1nc(-c3ccc(F)cc3)cn12` (centres undefined), for which the concentration for half-maximal inhibition (IC50) in the assay with Entamoeba histolytica and in the assay with Toxoplasma gondii was greater than 30 µM throughout.
Take `Clc1ccc2c(N3CCCC3)ccnc2c1`: the half-maximal inhibitory concentration (IC50) was greater than 30 µM with Entamoeba histolytica and 1.49 µM in the assay on Toxoplasma gondii.
For the compound `O=C1c2ccc3c4c(ccc(c24)C(=O)N1CCCCO)C(=O)N(CCCCO)C3=O`, the IC50 with Entamoeba histolytica and in the assay with Toxoplasma gondii was greater than 30 µM throughout.
Turning to `CCN(CC)CCNc1ccnc2cc3ccccc3cc12`, the half-inhibitory concentration (IC50) in the assay on Entamoeba histolytica and in the assay with Toxoplasma gondii was greater than 30 µM each time.
`FC(F)(F)c1cccc(Nc2nc(-c3ccccc3)nc3ncccc23)c1`: the IC50 in the assay with Entamoeba histolytica and in the assay on Toxoplasma gondii was greater than 30 µM each time.
For the compound `Oc1ccc(-c2nc(-c3ccc4oc5ccc(-c6[nH]c(-c7ccc(O)cc7)nc6-c6ccccc6)cc5c4c3)c(-c3ccccc3)[nH]2)cc1`, the IC50 in the assay on Entamoeba histolytica and with Toxoplasma gondii was greater than 30 µM throughout.
As to `CCn1c(CN2CCN(Cc3ccccc3)CC2)nc2cc(NC(=O)c3cccs3)ccc21`, the concentration for half-maximal inhibition (IC50) in the assay with Entamoeba histolytica and with Toxoplasma gondii was greater than 30 µM in each case.
As to `Oc1c(CN2CCN(c3ccccc3F)CC2)cc(Br)c2cccnc12`, the IC50 in the assay on Entamoeba histolytica and in the assay on Toxoplasma gondii was greater than 30 µM throughout.
Consider `Cc1ccc(Nc2nc(N)c3ccccc3n2)cc1Cl`, for which the concentration for half-maximal inhibition (IC50) in the assay with Entamoeba histolytica and in the assay on Toxoplasma gondii was greater than 30 µM throughout.
`COc1cccc(C2(C)Nc3ccccc3-c3nc4ccccc4n32)c1` (centres undefined): the IC50 with Entamoeba histolytica and in the assay on Toxoplasma gondii was greater than 30 µM each time.
For `COc1ccc(C(=O)Nc2nonc2-c2ccc(OC)c(OC)c2)cc1Cl`, the IC50 in the assay with Entamoeba histolytica and in the assay with Toxoplasma gondii was greater than 30 µM in each case.
As to `CCOc1ccccc1CNC(=O)C1c2ccccc2C(=O)N(CC(C)C)C1c1cccs1` (centres undefined), the IC50 in the assay with Entamoeba histolytica and in the assay on Toxoplasma gondii was greater than 30 µM throughout.
Take `CCN1CCN(Cc2ccc(NC(=O)c3cc4ccc5cccnc5c4[nH]3)cc2)CC1`: the 50% inhibitory concentration (IC50) with Entamoeba histolytica is greater than 30 µM; in the assay with Toxoplasma gondii, 3.85 µM.
For the compound `CCCCNc1nc(NC(C)(C)C)nc(NC(C)(C)C)n1`, the IC50 in the assay on Entamoeba histolytica and in the assay on Toxoplasma gondii was greater than 30 µM in each case.
For the compound `Cc1ccc(F)cc1NC(=O)c1cc(Cl)ccc1Nc1ccccc1`, the half-maximal inhibitory concentration (IC50) in the assay with Entamoeba histolytica and with Toxoplasma gondii was greater than 30 µM throughout.
Turning to `Fc1ccc2[nH]c3c(NCCCN4CCOCC4)ncnc3c2c1`, the half-maximal inhibitory concentration (IC50) in the assay on Entamoeba histolytica and in the assay on Toxoplasma gondii was greater than 30 µM throughout.
`O=C(CCc1ccco1)NC1CCN(CC2(c3ccc(Cl)cc3)CCC2)CC1`: the concentration for half-maximal inhibition (IC50) with Entamoeba histolytica was greater than 30 µM; with Toxoplasma gondii it was 24 µM.
With `O=[N+]([O-])c1ccc(C=NNc2nc3ccccc3[nH]2)cc1`, the IC50 in the assay on Entamoeba histolytica and in the assay with Toxoplasma gondii was greater than 30 µM in each case.
In the case of `O=C(Nc1ccc(Cl)cc1C(=O)Nc1ccncc1)c1ccc(Cl)cc1Cl`, the IC50 is greater than 30 µM with Entamoeba histolytica and 19 µM in the assay with Toxoplasma gondii.
The matching figures for `CC1=C(CC(=O)c2cccc([N+](=O)[O-])c2)C(=O)c2ccccc2C1=O`: greater than 30 µM and greater than 30 µM.
For the compound `COc1ccc(CCn2c(=N)c(C(=O)NCc3cccnc3)cc3c(=O)n4cccc(C)c4nc32)cc1`, the IC50 in the assay with Entamoeba histolytica and with Toxoplasma gondii was greater than 30 µM throughout.
For the compound `COCCN(C(=O)Cc1cccs1)C(C(=O)NCc1ccc(OC)cc1)c1ccc(C(C)C)cc1` (centres undefined), the IC50 in the assay on Entamoeba histolytica and with Toxoplasma gondii was greater than 30 µM throughout.
Consider `COc1ccc(C2N(C)c3ccccc3N2C)cc1`, for which the IC50 in the assay on Entamoeba histolytica and in the assay with Toxoplasma gondii was greater than 30 µM in each case.
For the compound `O=C(CCc1ccccc1)c1ccccc1OCC(O)CN1CCCCC1` (centres undefined), the concentration for half-maximal inhibition (IC50) in the assay on Entamoeba histolytica and with Toxoplasma gondii was greater than 30 µM in each case.
For `c1ccc(-c2ccc(-c3nc4ccccc4[nH]3)cc2)cc1`, the 50% inhibitory concentration (IC50) with Entamoeba histolytica and with Toxoplasma gondii was greater than 30 µM throughout.
As for `Cc1cc(N(C)C)nc(Nc2ccc(NC(=O)Nc3ccccc3)cc2)n1`, the IC50 in the assay on Entamoeba histolytica and with Toxoplasma gondii was greater than 30 µM in each case.
Regarding `Cc1ccc(-c2nc3ccccc3o2)cc1NCc1cc(Cc2ccccc2)ccc1O`, the half-maximal inhibitory concentration (IC50) in the assay on Entamoeba histolytica and in the assay with Toxoplasma gondii was greater than 30 µM in each case.
As for `CCOc1ccc(-c2nc(NC(=O)c3cccc(S(C)(=O)=O)c3)sc2C)cc1`, the half-maximal inhibitory concentration (IC50) with Entamoeba histolytica and in the assay with Toxoplasma gondii was greater than 30 µM each time.
On to `O=C(Nc1ccc(-c2nc3ccccc3[nH]2)cc1)c1ccc(Cl)c(Cl)c1`, for which the half-inhibitory concentration (IC50) in the assay on Entamoeba histolytica and in the assay on Toxoplasma gondii was greater than 30 µM throughout.
For the compound `CCc1ccc(CNCC(O)c2ccccc2)cc1` (centres undefined), the IC50 in the assay on Entamoeba histolytica and with Toxoplasma gondii was greater than 30 µM in each case.
On to `c1ccc(Cn2c(N=Nc3c(Nc4ccccc4)ccc4ccccc34)nc3ccccc32)cc1`, for which the half-maximal inhibitory concentration (IC50) in the assay on Entamoeba histolytica is greater than 30 µM; in the assay with Toxoplasma gondii it was 13.5 µM.
The matching figures for `c1ccc2c(NCCCCCCNc3c4c(nc5ccccc35)CCCC4)c3c(nc2c1)CCCC3`: greater than 30 µM and greater than 30 µM.
The matching figures for `CCCCC(O)(c1ccc(Cl)cc1)C(CN1CCOCC1)c1ccc(Cl)cc1` (centres undefined): greater than 30 µM and greater than 30 µM.
The like results for `COc1ccc2sc(N(Cc3cccnc3)C(=O)c3ccc(C#N)cc3)nc2c1` were, in that order, greater than 30 µM and greater than 30 µM.
Regarding `COc1ccc(C2C(C(=O)Nc3cccc(OC)c3)c3ccccc3C(=O)N2C2CCCCC2)cc1` (centres undefined), the half-inhibitory concentration (IC50) in the assay on Entamoeba histolytica and in the assay on Toxoplasma gondii was greater than 30 µM each time.
Turning to `CC(C)(C)c1ccc(C(=O)Nc2nc3ccccc3s2)cc1`, the concentration for half-maximal inhibition (IC50) in the assay with Entamoeba histolytica and with Toxoplasma gondii was greater than 30 µM in each case.
Regarding `Cc1sc2ncnc(Sc3nc4ccccc4[nH]3)c2c1C`, the concentration for half-maximal inhibition (IC50) in the assay on Entamoeba histolytica is greater than 30 µM; in the assay with Toxoplasma gondii it was 13.9 µM.
The like results for `OC(CNC1CCCCC1)Cn1c2ccc(I)cc2c2cc(I)ccc21` (centres undefined) were, in that order, greater than 30 µM and greater than 30 µM.
The like results for `CCC(O)c1ccc(Br)cc1NC(=O)c1cccc(Cl)c1` (centres undefined) were, in that order, greater than 30 µM and greater than 30 µM.
The like results for `O=C(NC1CCN(Cc2ccccc2)CC1)c1cc(-c2ccncc2)nc2ccc(Cl)cc12` were, in that order, greater than 30 µM and greater than 30 µM.
Consider `COc1ccc(CN2CCN(Cc3ccccc3)CC2)c(O)c1`, for which the IC50 in the assay on Entamoeba histolytica and in the assay on Toxoplasma gondii was greater than 30 µM in each case.
For the compound `Nc1ccn([C@@H]2O[C@H](CO)[C@@H](O)[C@H]2O)c(=O)n1` [CYTIDINE], the concentration for half-maximal inhibition (IC50) in the assay with Entamoeba histolytica and in the assay with Toxoplasma gondii was greater than 30 µM throughout.
Consider `O=C(CCl)NCCOc1ccc(Cl)cc1Cl`, for which the half-maximal inhibitory concentration (IC50) with Entamoeba histolytica and in the assay on Toxoplasma gondii was greater than 30 µM each time.
Consider `COc1ccc(C=C2SC(=N)N(c3ccccc3OC)C2=O)cc1`, for which the 50% inhibitory concentration (IC50) in the assay with Entamoeba histolytica and in the assay on Toxoplasma gondii was greater than 30 µM each time.
In the case of `CC(C)c1ccc(CNCC(O)c2ccccc2)cc1` (centres undefined), the results for the IC50 in the assay on Entamoeba histolytica and with Toxoplasma gondii were greater than 30 µM and 18.1 µM, respectively.
The like results for `COc1ccccc1N1C(=N)SC(=Cc2ccc(OCc3ccccc3F)cc2)C1=O` were, in that order, greater than 30 µM and greater than 30 µM.
The like results for `CC1CC2=C(CC1CNCCCN(C)C)C(C)(C)CCC2` (centres undefined) were, in that order, greater than 30 µM and greater than 30 µM.
The matching figures for `OC1=C2C(=Nc3ccccc3SC2c2ccccc2)c2ccccc21` (centres undefined): greater than 30 µM and greater than 30 µM.
On to `CCc1ccc(Nc2cc(C)c3ccc(O)cc3n2)cc1`, for which the IC50 in the assay with Entamoeba histolytica and with Toxoplasma gondii was greater than 30 µM in each case.
For `c1ccc2c(NCCc3c[nH]c4ccccc34)c3ccccc3nc2c1`, the half-maximal inhibitory concentration (IC50) in the assay on Entamoeba histolytica was greater than 30 µM; with Toxoplasma gondii, 3.05 µM.
The like results for `CCN1CCN(c2c(C(=O)c3ccccc3)cnc3cc(OC)c(OC)cc23)CC1` were, in that order, greater than 30 µM and greater than 30 µM.
As for `COc1cc(-c2nc(-c3ccccc3)c(-c3ccccc3)[nH]2)cc(OC)c1O`, the IC50 in the assay with Entamoeba histolytica and in the assay with Toxoplasma gondii was greater than 30 µM each time.
